#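 A five-concentration, 48-hour dose response in 96-well plates underlies each endpoint, interpolated linearly between surrounding concentrations. GI50: concentration for 50% inhibition of growth. Definition used: TGI = concentration required for complete inhibition of growth.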
# Experiments:
# Test in all cases: growth of human tumour cells (NCI), 48 h
# A498 renal = system: A498 renal
# A549 NSCLC = system: A549 NSCLC
# ACHN renal = system: ACHN renal
# CAKI-1 renal = system: CAKI-1 renal
# HOP-92 NSCLC = system: HOP-92 NSCLC
# IGROV1 ovarian = system: IGROV1 ovarian
# LOX IMVI melanoma = system: LOX IMVI melanoma
# NCI-H522 lung = system: NCI-H522 lung
# UACC-257 melanoma = system: UACC-257 melanoma
# CCRF-CEM leukemia = system: CCRF-CEM leukemia
Compound,GI50 (A498 renal) [µM],TGI (A498 renal) [µM],GI50 (A549 NSCLC) [µM],TGI (A549 NSCLC) [µM],GI50 (ACHN renal) [µM],TGI (ACHN renal) [µM],GI50 (CAKI-1 renal) [µM],TGI (CAKI-1 renal) [µM],GI50 (HOP-92 NSCLC) [µM],TGI (HOP-92 NSCLC) [µM],GI50 (IGROV1 ovarian) [µM],TGI (IGROV1 ovarian) [µM],GI50 (LOX IMVI melanoma) [µM],TGI (LOX IMVI melanoma) [µM],GI50 (NCI-H522 lung) [µM],TGI (NCI-H522 lung) [µM],GI50 (UACC-257 melanoma) [µM],TGI (UACC-257 melanoma) [µM],TGI (CCRF-CEM leukemia) [µM],GI50 (CCRF-CEM leukemia) [µM]
COc1cc(C(=O)O[C@H](C(=O)NCCCCCNC(=O)[C@@H](OC(=O)c2cc(OC)cc3c(C)cccc23)[C@]2(C)CO2)[C@]2(C)CO2)c2cccc(C)c2c1,1.33,5.25,0.447,10.2,< 0.0143,< 0.0338,0.355,1.89,0.292,0.867,1.43,> 100,< 0.01,< 0.0138,0.565,> 22.3,2.03,5.33,–,–
N#CC(NC12CC3CC(CC(C3)C1)C2)c1ccc2c(c1)OCO2 (centres undefined),–,–,–,> 100,–,> 100,–,> 100,–,> 100,–,> 100,–,> 100,–,> 100,–,> 100,> 100,–
CC(C)N(Cc1ccccc1)c1c(S)ssc1=S,0.723,4.12,2.41,12.9,1.97,12.4,0.661,> 100,0.342,3.79,–,–,3.08,15.5,2.06,> 100,1.54,6.2,6.66,0.849
COc1cc(NC(C)CCCNC2CN3CCC2CC3)c2ncccc2c1 (centres undefined),2.05,16.8,12.9,27.5,14.7,29.3,13.4,38.9,4.37,21.8,11.5,31.2,9.6,25,–,–,2.39,5.74,> 100,19
CCOc1ccc2c(c1)[n+]([O-])c(-c1ccc(Cl)cc1)c(N)[n+]2[O-],–,> 100,–,> 100,–,> 100,–,> 100,–,> 100,–,> 100,–,–,–,> 100,–,> 100,–,–
COc1cc([N+](=O)[O-])c(OC)cc1-c1nc2sc(Cl)cn2c1/C(N)=N/C(=N)N,20.7,48.6,18.4,> 53,> 56.9,> 100,39,> 100,7.06,24,5.18,> 54.6,4.44,> 100,2.35,5.49,8,22.6,–,–
COc1ccc(C2=CC(c3ccc4c(c3)OCO4)c3c(c4ccccc4oc3=O)O2)cc1OC (centres undefined),–,> 100,–,> 100,–,> 100,–,> 100,–,> 100,–,> 100,–,> 100,–,–,–,> 100,> 100,–
CN1C(=Nc2ccccc2)SC1=Nc1ccccc1,–,> 100,–,> 100,–,> 100,–,–,–,58.5,–,> 100,–,> 100,–,41.3,–,> 100,> 100,–
CC(C)(C)n1cc(-c2ccnc(NCCCNS(=O)(=O)c3ccc(C(F)(F)F)cc3)c2)c(-c2cccc(O)c2)n1,1.54,4.2,2.02,4.58,1.88,3.54,1.99,4.21,1.6,3.31,1.8,3.55,1.72,3.09,1.99,3.98,2.07,4.6,–,–
COc1ccc2n[se]nc2c1,–,–,–,> 100,–,> 100,–,> 100,–,–,–,> 100,–,> 100,–,> 100,–,> 100,> 100,–
CN(C)CC/C(=N\Nc1ccc([N+](=O)[O-])cc1)c1ccccc1,–,27.2,–,26.8,–,6.81,–,–,–,–,–,24.9,–,18.1,–,29.1,–,30.5,23.6,–
Cc1ccc2nc(NC(=O)C(=O)C(C#N)c3nc4ccccc4s3)sc2c1 (centres undefined),–,37.8,–,–,–,> 100,–,94.3,–,75.3,–,51.8,–,> 100,–,> 100,–,87.6,–,–
CN(CCCn1c2c(c3ccccc3c1=O)C(=O)c1ccccc1-2)CCCn1c2c(c3ccccc3c1=O)C(=O)c1ccccc1-2,11.4,74.3,1.13,4.21,–,–,2,24.8,0.0671,1.9,–,–,–,–,–,> 100,21.6,> 73.2,–,–
c1ccc2[nH]c(-c3ccc(-c4nccc5c4[nH]c4ccccc45)cc3)nc2c1,11.4,25.5,4.15,18.6,2.05,4.17,2.41,7.11,2.06,5.79,4.73,22.4,–,–,2.06,5.04,1.83,3.5,9.12,3.12
CC(C)(C)c1ccc(Oc2nccc(-c3c(-c4ccc(F)cc4)ncn3C3CCNCC3)n2)cc1,3.89,7.49,3.55,6.9,3.49,6.78,3.96,7.64,–,–,3.86,8.01,3.43,7.49,4.69,8.58,–,–,–,–
O=C(O)C(/C=C/c1ccccc1)c1ccccc1 (centres undefined),–,> 100,–,> 100,–,> 100,–,–,–,> 100,–,> 100,–,> 100,–,> 100,–,> 100,> 100,–
O=C([CH-]C(=O)c1ccccc1)c1ccccc1.O=C([CH-]C(=O)c1ccccc1)c1ccccc1.[La+3].[OH-].[OH3+],17.9,87.7,20.6,55.2,19.6,> 100,17.4,56.8,15.3,38.9,25.8,> 100,13.5,37.1,3.29,19.8,16.3,46.5,–,–
COc1ccc(/C(COc2ccc3c(=O)cc(-c4ccccc4)oc3c2)=N\O)cc1,–,–,20.1,> 50,9.5,19,1.83,28.4,> 27.7,> 50,16.6,> 47.6,9.4,24.4,7.32,26.6,19.6,> 35.5,> 50,> 50

Compound,GI50 (A498 renal) [µM],TGI (A498 renal) [µM],GI50 (A549 NSCLC) [µM],TGI (A549 NSCLC) [µM],GI50 (ACHN renal) [µM],TGI (ACHN renal) [µM],GI50 (CAKI-1 renal) [µM],TGI (CAKI-1 renal) [µM],GI50 (HOP-92 NSCLC) [µM],TGI (HOP-92 NSCLC) [µM],GI50 (IGROV1 ovarian) [µM],TGI (IGROV1 ovarian) [µM],GI50 (LOX IMVI melanoma) [µM],TGI (LOX IMVI melanoma) [µM],GI50 (NCI-H522 lung) [µM],TGI (NCI-H522 lung) [µM],GI50 (UACC-257 melanoma) [µM],TGI (UACC-257 melanoma) [µM],TGI (CCRF-CEM leukemia) [µM],GI50 (CCRF-CEM leukemia) [µM]
COC(=O)/C(C)=C(/CCC1(C)OCCO1)O[Si](C)(C)C,–,–,–,> 100,–,> 100,–,> 100,–,> 100,–,> 100,–,> 100,–,–,–,> 100,> 100,–
COc1ccc(Br)c(N/N=C2\CCCNC2=O)c1,–,–,–,> 100,–,> 100,–,91.8,–,> 100,–,> 100,–,> 100,–,> 100,–,> 100,> 100,–
CC/C=C1/C(=O)C=C[C@@H]1C/C=C\CCCC(=O)OC,–,–,13.3,29.5,2.27,4.57,2.7,7.45,12.1,25.1,3.76,15.8,0.505,1.91,1.56,3.57,2.51,7.1,10.6,0.519
Oc1c(C(Nc2cccc3cccnc23)c2ccccc2)ccc2cccnc12 (centres undefined),–,66.6,–,> 100,–,> 100,–,> 100,–,–,–,39.9,–,> 100,–,73.8,–,35.9,78.8,–
COC(=O)C1(C)CCC(c2ccc(C)cc2)=C(CC(=O)O)C1 (centres undefined),–,> 100,–,> 100,–,> 100,–,–,–,> 100,–,> 100,–,> 100,–,> 100,–,> 100,–,–
FC(F)(F)c1ccc(Nc2nc(-c3c(C(F)(F)F)nc4ccccn34)cs2)cc1,0.0268,0.193,0.0625,10.6,0.061,6.83,0.0419,8.2,–,–,0.422,12.1,0.0533,7.95,0.0284,0.754,2.06,8.64,> 30.8,0.0502
Fc1ccc2c(c1)C1=NN(c3ccccc3)C(F)C1CO2 (centres undefined),11.4,21,7.96,23.9,8.94,22.7,6.41,20.2,9.55,23.7,15.2,> 50,10.5,24.1,> 50,> 50,9.7,26.5,–,–
O=C1c2ccccc2C(O)(O)C1(O)C1(O)C(=O)c2ccccc2C1(O)O (centres undefined),–,> 100,–,> 100,–,47.9,–,> 100,–,> 100,–,> 100,–,58.3,–,44.5,–,–,44.7,–
Cc1ccc(S(=O)(=O)N/N=C/c2c(O)ccc3ccccc23)cc1,–,44.2,–,> 100,–,> 100,–,35.3,–,–,–,84.5,–,> 100,–,45.6,–,> 100,> 100,–
CCc1cc(C(=O)OC)cn1C(=N)c1ccc(Cl)cc1,–,> 100,–,> 100,–,> 100,–,> 100,–,> 100,–,> 100,–,> 100,–,–,–,> 100,> 100,–
C(#Cc1ccccc1C#Cc1cccs1)c1cccs1,22,81.4,89.9,> 100,78,> 100,43.2,> 100,–,–,> 100,> 100,23.7,53.8,34.2,> 100,> 100,> 100,> 100,31.9
OC(c1ccccc1)(c1ccccc1)c1ccncc1,–,–,–,> 100,–,> 100,–,> 100,–,> 100,–,> 100,–,> 100,–,> 100,–,> 100,> 100,–
COc1ccc2cc(C(=O)/C=C/c3ccc(Cl)cc3Cl)ccc2c1,19.8,36,14.1,31.9,15.1,51.3,15.8,70,> 100,> 100,–,–,–,–,32.8,85.5,20,55,> 100,6.74
COc1cnc2c(c1)C(=O)c1c-2n(CCCn2ccnc2)c(=O)c2cc(F)ccc12,0.0508,0.218,0.0209,1.5,–,–,–,–,0.154,3.11,–,–,< 0.01,0.128,< 0.01,0.169,0.102,0.493,–,–
Cc1ccc(S(=O)(=O)OC2CSS(=O)CC2OS(=O)(=O)c2ccc(C)cc2)cc1 (centres undefined),–,30.1,–,37.9,–,31.3,–,25.7,–,25.9,–,32.9,–,26.1,–,22.6,–,28.2,–,–
CC(C)C1CC[C@@H](C)C[C@@]1(O)CC(N)=O (some centres undefined),–,–,–,> 100,–,> 100,–,> 100,–,–,–,> 100,–,–,–,> 100,–,> 100,–,–
CC(=O)OCC1OC(n2cnc(C(N)=S)c2N)C(OC(C)=O)C1OC(C)=O (centres undefined),–,–,–,> 100,–,> 100,–,> 100,–,> 100,–,> 100,–,> 100,–,> 100,–,> 100,> 100,–
O=C(O)C(SC(=S)c1ccc(C(=S)SC(C(=O)O)c2ccccc2)cc1)c1ccccc1 (centres undefined),–,> 100,–,> 100,–,> 100,–,–,–,> 100,–,> 100,–,> 100,–,–,–,> 100,> 100,–
